The assay addresses HPK1 (Homo sapiens, UniProt Q92918). In words: HPK1 Lantha Binding Assay ("Lanth"). The conditions noted are these: Table B1-1, read-out: HPK1 Ki (μM) (Lanth). In a few lines: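 TR-FRET tracer displacement with 2 nM GST-tagged kinase, 2 nM Eu-anti-GST antibody and 15 nM Tracer222 at 23 C. Enzyme–antibody preincubated 1 h with compound, then tracer added for 1 h; 340 nm excitation, 615/665 nm emission. Ki from Morrison fit over an 11-point 5-fold dilution.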
HPK1, sequence (Q92918 whole entry, looked up): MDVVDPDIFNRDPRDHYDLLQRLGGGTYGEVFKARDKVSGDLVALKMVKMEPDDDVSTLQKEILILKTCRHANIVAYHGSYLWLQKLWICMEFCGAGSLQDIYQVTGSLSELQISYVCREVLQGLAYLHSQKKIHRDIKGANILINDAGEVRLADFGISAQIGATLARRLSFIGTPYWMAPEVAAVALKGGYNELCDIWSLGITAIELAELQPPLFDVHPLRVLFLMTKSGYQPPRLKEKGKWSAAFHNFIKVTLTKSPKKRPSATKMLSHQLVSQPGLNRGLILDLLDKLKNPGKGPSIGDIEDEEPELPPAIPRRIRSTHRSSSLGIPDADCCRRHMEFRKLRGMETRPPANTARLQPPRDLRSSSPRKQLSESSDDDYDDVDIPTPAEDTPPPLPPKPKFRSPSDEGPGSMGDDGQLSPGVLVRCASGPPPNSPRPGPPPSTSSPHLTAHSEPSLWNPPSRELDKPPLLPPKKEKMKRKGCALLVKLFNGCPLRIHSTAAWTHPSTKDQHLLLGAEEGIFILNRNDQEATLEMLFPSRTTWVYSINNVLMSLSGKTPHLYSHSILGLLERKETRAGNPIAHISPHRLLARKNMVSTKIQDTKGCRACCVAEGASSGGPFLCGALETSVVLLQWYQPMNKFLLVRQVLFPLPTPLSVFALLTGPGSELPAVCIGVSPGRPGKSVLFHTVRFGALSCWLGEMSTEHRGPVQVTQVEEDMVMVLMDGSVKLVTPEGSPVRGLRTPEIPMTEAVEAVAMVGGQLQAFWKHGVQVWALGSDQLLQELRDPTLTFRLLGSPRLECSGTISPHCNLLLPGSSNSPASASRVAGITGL
Consider `Cc1ccncc1-c1cc2cc(NC(=O)C(C)C#N)ncc2c(N)n1` (racemic) [Compound 38, N-(8-amino-6-(4-methylpyridin-3-yl)-2,7-naphthyridin-3-yl)-2-cyanopropanamide], for which the Ki is 48.4 nM.
In the case of `Cc1ccncc1-c1cc2cc(NC(=O)[C@@H]3C[C@H]3C#N)ncc2c(N)n1` (racemic) [Compound 43, trans-N-(8-amino-6-(4-methylpyridin-3-yl)-2,7-naphthyridin-3-yl)-2-cyanocyclopropanecarboxamide], the inhibition constant (Ki) was found to be 2.05 nM.
Under `Nc1nc(-c2cnccc2C2CC2)cc2cc(NC(=O)[C@@H]3C[C@@H]3F)ncc12` (racemic) [Compound 46, (±)-cis-N-(8-amino-6-(4-cyclopropylpyridin-3-yl)-2,7-naphthyridin-3-yl)-2-fluorocyclopropanecarboxamide] stands 1.52 nM; under `Cc1cc(C(N)=O)ccc1-c1cc2cc(NC(=O)[C@@H]3C[C@@H]3F)ncc2c(N)n1` (racemic) [Compound 48, (±)-4-(1-amino-6-((cis)-2-fluorocyclopropanecarboxamido)-2,7-naphthyridin-3-yl)-3-methylbenzamide], 10.3 nM; under `CNC(=O)c1ccc(-c2cc3cc(NC(=O)[C@@H]4C[C@@H]4F)ncc3c(N)n2)c(C)c1` (racemic) [Compound 49, 4-(1-amino-6-((cis)-2-fluorocyclopropanecarboxamido)-2,7-naphthyridin-3-yl)-N,3-dimethylbenzamide], 6.82 nM.
To `CC(C)c1ccncc1-c1cc2cc(NC(=O)[C@H]3C[C@@H]3C#N)ncc2c(N)n1` (racemic) [Compound 50, trans-N-(8-amino-6-(4-isopropylpyridin-3-yl)-2,7-naphthyridin-3-yl)-2-cyanocyclopropanecarboxamide] belongs 5.9 nM; to `Cc1ccncc1-c1cc2cc(NC(=O)[C@@H]3C[C@H]3F)ncc2c(N)n1` (racemic) [Compound 51, (±)-trans-N-(8-amino-6-(4-methylpyridin-3-yl)-2,7-naphthyridin-3-yl)-2-fluorocyclopropanecarboxamide], 1.3 nM.
Regarding `Cc1c(-c2cc3cc(NC(=O)[C@@H]4C[C@@H]4F)ncc3c(N)n2)cnc2nc[nH]c12` (racemic) [Compound 52, (±)-cis-N-(8-amino-6-(7-methyl-1H-imidazo [4,5-b]pyridin-6-yl)-2,7-naphthyridin-3-yl)-2-fluorocyclopropanecarboxamide], the Ki stood at 2.98 nM.
`CCc1ccncc1-c1cc2cc(NC(=O)[C@H]3C[C@@H]3COC)ncc2c(N)n1` (racemic) [Compound 53, (±)-trans-N-(8-amino-6-(4-ethylpyridin-3-yl)-2,7-naphthyridin-3-yl)-2-(methoxymethyl) cyclopropane carboxamide]: the inhibition constant Ki is 0.736 nM.
Consider `Nc1nc(N2CCCC2CCO)cc2cc(NC(=O)[C@@H]3C[C@@H]3F)ncc12` (mixture of isomers) [Compound 54, (±)-cis-N-(8-amino-6-(2-(2-hydroxyethyl)pyrrolidin-1-yl)-2,7-naphthyridin-3-yl)-2-fluorocyclopropanecarboxamide], for which the Ki was determined as 48.9 nM.
As for `COc1cc(-c2cc3cc(NC(=O)[C@@H]4C[C@@H]4F)ncc3c(N)n2)c(C)cn1` (racemic) [Compound 55, cis-N-(8-amino-6-(2-methoxy-5-methylpyridin-4-yl)-2,7-naphthyridin-3-yl)-2-fluorocyclopropanecarboxamide], the Ki is 6.4 nM.
As for `CCc1ccncc1-c1cc2cc(Nc3cc(C(O)CC)ccn3)ncc2c(N)n1` (racemic) [Compound 82, (±)-1-{2-[8-Amino-6-(4-ethylpyridin-3-yl)-[2,7]naphthyridin-3-ylamino]-pyridin-4-yl}propan-1-ol], the Ki turned out to be 0.4 nM.
Take `N#C[C@@H]1C[C@H]1C(=O)Nc1cc2cc(-c3cncc4c3CCCC4O)nc(N)c2cn1` (mixture of isomers) [Compound 99, (±)-trans-N-(8-amino-6-(8-hydroxy-5,6,7,8-tetrahydroisoquinolin-4-yl)-2,7-naphthyridin-3-yl)-2-cyanocyclopropane-1-carboxamide]: the Ki came to 70.7 nM.
Regarding `Nc1nc(-c2cccnc2)cc2cc(NC(=O)[C@@H]3C[C@@H]3F)ncc12` (racemic) [Compound 106, (±)-cis-N-(8-amino-6-(pyridin-3-yl)-2,7-naphthyridin-3-yl)-2-fluorocyclopropane-1-carboxamide], the Ki turned out to be 4.97 nM.
In the case of `N#C[C@@H]1C[C@H]1C(=O)Nc1cc2cc(-c3cn[nH]c3)nc(N)c2cn1` (racemic) [Compound 112, (±)-trans-N-(8-amino-6-(1H-pyrazol-4-yl)-2,7-naphthyridin-3-yl)-2-cyanocyclopropane-1-carboxamide], the Ki was determined as 1.87 nM.
For `CC(C)c1[nH]ncc1-c1cc2cc(NC(=O)[C@@H]3C[C@H]3C#N)ncc2c(N)n1` (racemic) [Compound 114, (±)-trans-N-(8-amino-6-(5-isopropyl-1H-pyrazol-4-yl)-2,7-naphthyridin-3-yl)-2-cyanocyclopropane-1-carboxamide], the Ki amounted to 2.24 nM.
For the compound `Cc1ccncc1-c1cc2cc(NC(=O)[C@@H]3C[C@H]3C)ncc2c(N)n1` (racemic) [Compound 118, (±)-trans-N-(8-amino-6-(4-methylpyridin-3-yl)-2,7-naphthyridin-3-yl)-2-methylcyclopropane-1-carboxamide], the Ki worked out at 0.476 nM.
For `Cc1ccncc1-c1cc2cc(NC3CCNC3)ncc2c(N)n1` (racemic) [Compound 120, (±)-3-(4-methyl-3-pyridyl)-N6-pyrrolidin-3-yl-2,7-naphthyridine-1,6-diamine], the Ki was 2400 nM.
Under `Cc1ccncc1-c1cc2cc(NC(=O)[C@@H]3C[C@H]3c3cn[nH]c3)ncc2c(N)n1` (racemic) [Compound 122, (±)-trans-N-[8-amino-6-(4-methyl-3-pyridyl)-2,7-naphthyridin-3-yl]-2-(1H-pyrazol-4-yl)cyclopropanecarboxamide] stands 0.0629 nM; under `Cc1ccncc1-c1cc2cc(NC(=O)[C@H]3C[C@]34CCNC4)ncc2c(N)n1` (racemic) [Compound 126, (±)-cis-N-(8-amino-6-(4-methylpyridin-3-yl)-2,7-naphthyridin-3-yl)-5-azaspiro[2.4]heptane-1-carboxamide], 7 nM.
On to `COCCN1CC[C@]2(C[C@H]2C(=O)Nc2cc3cc(-c4cnccc4C)nc(N)c3cn2)C1` (racemic) [Compound 127, (±)-trans-N-(8-amino-6-(4-methylpyridin-3-yl)-2,7-naphthyridin-3-yl)-5-(2-methoxyethyl)-5-azaspiro[2.4]heptane-1-carboxamide], for which the Ki was determined as 5.3 nM.
`COCCN1CC[C@]2(C[C@@H]2C(=O)Nc2cc3cc(-c4cnccc4C)nc(N)c3cn2)C1` (racemic) [Compound 128, (±)-cis-N-(8-amino-6-(4-methylpyridin-3-yl)-2,7-naphthyridin-3-yl)-5-(2-methoxyethyl)-5-azaspiro[2.4]heptane-1-carboxamide]: the Ki stood at 2.5 nM.
In the case of `Cc1ccncc1-c1cc2cc(NC(=O)[C@@H]3C[C@H]3c3cccnc3)ncc2c(N)n1` (racemic) [Compound 131, (±)-trans-N-[8-amino-6-(4-methyl-3-pyridyl)-2,7-naphthyridin-3-yl]-2-(3-pyridyl)cyclopropane carboxamide], the Ki was found to be 0.31 nM.
With `N#C[C@H]1C[C@@H]1C(=O)Nc1cc2cc(-c3cn[nH]c3C(F)(F)F)nc(N)c2cn1` (racemic) [Compound 132, (±)-trans-N-[8-amino-6-[5-(trifluoromethyl)-1H-pyrazol-4-yl]-2,7-naphthyridin-3-yl]-2-cyano-cyclopropanecarboxamide], the Ki is 6.5 nM.
Consider `Cc1cc2[nH]c(=O)oc2cc1-c1cc2cc(NC(=O)C3C[C@H]3C#N)ncc2c(N)n1` (mixture of isomers) [Compound 135, (±)-((trans-)-N-(8-amino-6-(5-methyl-2-oxo-2,3-dihydrobenzo[d]oxazol-6-yl)-2,7-naphthyridin-3-yl)-2-cyanocyclopropanecarboxamide], for which the Ki came to 0.25 nM.
For `Cc1ccncc1-c1cc2cc(NC(=O)[C@@H]3C[C@@H]3C(=O)N(C)C)ncc2c(N)n1` (racemic) [Compound 136, (±)-cis-N1-(8-amino-6-(4-methylpyridin-3-yl)-2,7-naphthyridin-3-yl)-N2,N2-dimethylcyclopropane-1,2-dicarboxamide], the Ki was found to be 130 nM.
As to `CCNC(=O)[C@H]1C[C@H]1C(=O)Nc1cc2cc(-c3cnccc3C)nc(N)c2cn1` (racemic) [Compound 137, (±)-(cis)-N1-(8-amino-6-(4-methylpyridin-3-yl)-2,7-naphthyridin-3-yl)-N2-ethylcyclopropane-1,2-dicarboxamide], the Ki worked out at 110 nM.
With `Cc1ccncc1-c1cc2cc(NC(=O)[C@H]3C[C@@H]3C(=O)N(C)C)ncc2c(N)n1` (racemic) [Compound 138, (±)-trans-N1-(8-amino-6-(4-methylpyridin-3-yl)-2,7-naphthyridin-3-yl)-N2,N2-dimethylcyclopropane-1,2-dicarboxamide], the Ki stood at 32 nM.
Under `Cc1cc2c(cc1-c1cc3cc(NC(=O)[C@H]4C[C@@H]4C#N)ncc3c(N)n1)oc(=O)n2C` (racemic) [Compound 142, (±)-trans-N-(8-amino-6-(3,5-dimethyl-2-oxo-2,3-dihydrobenzo[d]oxazol-6-yl)-2,7-naphthyridin-3-yl)-2-cyanocyclopropanecarboxamide] stands 1.4 nM.
Under `Cc1cc2[nH]c(=O)oc2cc1-c1cc2cc(NC(=O)[C@@H]3C[C@H]3c3cn[nH]c3)ncc2c(N)n1` (racemic) [Compound 144, (±)-trans-N-[8-amino-6-(5-methyl-2-oxo-3H-1,3-benzoxazol-6-yl)-2,7-naphthyridin-3-yl]-2-(1H-pyrazol-4-yl)cyclopropanecarboxamide] stands 1.1 nM; under `COc1ccc(Cn2cncc2[C@@H]2C[C@H]2C(=O)Nc2cc3cc(-c4cnccc4C)nc(N)c3cn2)cc1` (racemic) [Compound 145, (±)-trans-N-[8-amino-6-(4-methyl-3-pyridyl)-2,7-naphthyridin-3-yl]-2-[3-[(4-methoxyphenyl)methyl]imidazol-4-yl]cyclopropanecarboxamide], 2 nM.

In general, Ki refers to the equilibrium dissociation constant of an inhibitor or competing ligand from its target.
